Results taken from PMC6440584 (Eurosurveillance, 2019).

How the values were obtained:
[1] = target: neuraminidase (NA) of influenza A(H3N2) virus A/YOKOHAMA/88/2019 (Influenza A virus, UniProt A0A193ACB1); assay type: biochemical
[2] = target: neuraminidase (NA) of influenza A(H3N2) virus A/YOKOHAMA/87/2019 (Influenza A virus, UniProt A0A193ACB1); assay type: biochemical
[3] = test system: influenza A(H3N2) virus A/YOKOHAMA/87/2019 (PA I38T); assay type: cell-based
[4] = test system: influenza A(H3N2) virus A/YOKOHAMA/88/2019 (PA I38T); assay type: cell-based

Structure (SMILES) | IC50 [1] [µM] | IC50 [2] [µM] | IC50 [3] [µM] | fold higher IC50 compared with the median IC50 of A(H3N2) viruses of the 2018/19 season [3] [fold] | IC50 [4] [µM] | fold higher IC50 compared with the median IC50 of A(H3N2) viruses of the 2018/19 season [4] [fold]
CCC(CC)[C@H](NC(C)=O)[C@@H]1[C@H](O)[C@@H](C(=O)O)C[C@H]1N=C(N)N [Peramivir, peramivir] | 0.00013 | 0.00016 |  |  |  | 
